{
  "source": "patent US9873883B2",
  "about": "“Glyphosate resistant plants and associated methods” (Dow AgroSciences LLC, priority 2012, dated 2018)",
  "key": {"[1]": {"tested_on": "Arabidopsis transformed with TraP9 v2::dgt-14 (pDAB105527)", "assay": "Postemergence glyphosate tolerance, visual injury", "assay_type": "in vivo, Arabidopsis thaliana", "conditions": "2 weeks after application"}, "[2]": {"tested_on": "Arabidopsis transformed with TraP5 v2::dgt-14 (pDAB105525)", "assay": "Postemergence glyphosate tolerance, visual injury", "assay_type": "in vivo, Arabidopsis thaliana", "conditions": "2 weeks after application"}, "dgt-14 rice plants": {"tested_on": "dgt-14 rice plants", "assay": "Glyphosate tolerance of dgt-14 rice", "assay_type": "in vivo, Oryza sativa", "conditions": "sprayed", "description": "Putatively transgenic rice plantlets at the 3-5 leaf stage are sprayed with a solution of glyphosate. Once sprayed, plantlets are allowed to dry for one hour before being moved out of the fume hood. Rating for sensitivity or resistance to glyphosate is completed from 10-14 days after treatment (DAT). Glyphosate resistant rice plantlets which contain a fully integrated copy of the dgt-14 plant are identified. Rice plants containing the dgt-14 transgene are obtained. The dgt-14 rice plants are sprayed with varying concentrations of glyphosate and shown to provide tolerance to glyphosate at concentrations up to 3360 g ae/ha."}, "[3]": {"tested_on": "Arabidopsis transformed with TraP5 v1::dgt-14 (pDAB102787)", "assay": "Postemergence glyphosate tolerance, visual injury", "assay_type": "in vivo, Arabidopsis thaliana", "conditions": "2 weeks after application"}, "[4]": {"tested_on": "Non-transformed control Arabidopsis (cv. Columbia)", "assay": "Postemergence glyphosate tolerance, visual injury", "assay_type": "in vivo, Arabidopsis thaliana", "conditions": "840 g ae/ha, 2 weeks after application"}, "[5]": {"tested_on": "Arabidopsis transformed with TraP13 v2::dgt-14 (pDAB105529)", "assay": "Postemergence glyphosate tolerance, visual injury", "assay_type": "in vivo, Arabidopsis thaliana", "conditions": "2 weeks after application"}, "[6]": {"molecular_target": "T1, Triticum aestivum (wheat) EPSP synthase DGT-7 variant DGT-7 v7 (G→A, P→S; GAPS) (Triticum aestivum, UniProt B5M6A1, G167A/P172S)", "T1 construct": "GAPS double mutant", "T1 sequence (B5M6A1 entry or part of it G167A/P172S)": "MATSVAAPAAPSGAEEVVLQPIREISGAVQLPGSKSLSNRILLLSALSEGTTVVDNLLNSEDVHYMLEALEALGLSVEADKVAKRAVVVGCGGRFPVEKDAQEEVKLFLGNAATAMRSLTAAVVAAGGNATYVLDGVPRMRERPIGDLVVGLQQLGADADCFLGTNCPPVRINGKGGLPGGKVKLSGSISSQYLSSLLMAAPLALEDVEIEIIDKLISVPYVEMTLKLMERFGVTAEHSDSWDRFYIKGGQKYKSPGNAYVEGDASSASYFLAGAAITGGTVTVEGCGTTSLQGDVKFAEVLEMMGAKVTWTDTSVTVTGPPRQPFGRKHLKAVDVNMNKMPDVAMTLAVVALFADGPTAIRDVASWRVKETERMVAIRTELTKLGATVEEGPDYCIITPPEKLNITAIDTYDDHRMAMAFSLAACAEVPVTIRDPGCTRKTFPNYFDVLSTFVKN", "assay": "In vitro kinetic assay (inorganic phosphate production, malachite green)", "assay_type": "biochemical", "conditions": "IC50 (glyphosate)"}, "[7]": {"molecular_target": "T2, Brassica napus (canola) EPSP synthase DGT-3 (GENBANK P17688) variant DGT-3 v7 (G→A, P→S; GAPS) (Brassica napus, UniProt P17688, G173A/P178S)", "T2 construct": "made in house; host or cells: E. coli Rosetta2 (DE3)", "T2 sequence (P17688 73-516 G173A/P178S, one chain of several)": "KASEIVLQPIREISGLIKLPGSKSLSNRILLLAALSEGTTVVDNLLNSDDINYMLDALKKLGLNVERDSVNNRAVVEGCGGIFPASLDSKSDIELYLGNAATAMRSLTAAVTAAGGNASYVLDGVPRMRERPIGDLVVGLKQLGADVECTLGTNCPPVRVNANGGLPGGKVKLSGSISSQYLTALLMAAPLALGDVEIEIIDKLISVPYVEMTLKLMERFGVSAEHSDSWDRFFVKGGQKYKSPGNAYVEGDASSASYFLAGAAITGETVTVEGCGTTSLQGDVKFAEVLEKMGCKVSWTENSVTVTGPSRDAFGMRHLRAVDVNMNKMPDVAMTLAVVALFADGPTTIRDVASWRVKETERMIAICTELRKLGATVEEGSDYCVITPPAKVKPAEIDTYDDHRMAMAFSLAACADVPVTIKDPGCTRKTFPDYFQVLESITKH", "assay": "In vitro kinetic assay (inorganic phosphate production, malachite green)", "assay_type": "biochemical", "conditions": "IC50 (glyphosate)"}, "[8]": {"molecular_target": "Glycine max (soybean) EPSP synthase DGT-1 variant DGT-1 v7 (G→A, P→S; GAPS) (Glycine max, UniProt I1J7U9, G182A/P187S)", "sequence (I1J7U9 entry or part of it G182A/P187S)": "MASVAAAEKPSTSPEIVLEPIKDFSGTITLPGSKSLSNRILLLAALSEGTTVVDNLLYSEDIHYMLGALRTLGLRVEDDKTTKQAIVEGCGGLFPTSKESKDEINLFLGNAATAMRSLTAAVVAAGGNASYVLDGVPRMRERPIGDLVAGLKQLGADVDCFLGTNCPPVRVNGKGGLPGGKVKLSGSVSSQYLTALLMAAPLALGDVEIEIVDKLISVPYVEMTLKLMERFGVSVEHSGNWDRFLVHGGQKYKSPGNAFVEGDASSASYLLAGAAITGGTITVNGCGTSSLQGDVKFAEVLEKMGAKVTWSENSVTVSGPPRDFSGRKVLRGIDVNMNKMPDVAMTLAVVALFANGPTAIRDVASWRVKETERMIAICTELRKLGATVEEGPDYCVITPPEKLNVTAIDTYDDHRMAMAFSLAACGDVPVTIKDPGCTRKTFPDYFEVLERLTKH", "assay": "In vitro kinetic assay (inorganic phosphate production, malachite green)", "assay_type": "biochemical"}},
  "note": "Read-outs that look alike come from different tables or passages of the source.",
  "data": [
    {"smiles": "O=C(O)CNCP(=O)(O)O", "note": "[glyphosate, N-(phosphonomethyl)glycine]", "values": [
      {"measurement": "Visual % injury (Ave)", "setting": "[1]; T2, 840 g ae/ha", "result": 0.0, "unit": "%"},
      {"measurement": "Visual % injury (Ave)", "setting": "[1]; T3, 840 g ae/ha", "result": 0.0, "unit": "%"},
      {"measurement": "Visual % injury (Ave)", "setting": "[2]; T2, 840 g ae/ha", "result": 90.0, "unit": "%"},
      {"measurement": "Visual % injury (Ave)", "setting": "[2]; T3, 840 g ae/ha", "result": 97.5, "unit": "%"},
      {"measurement": "tolerance to glyphosate at concentrations up to", "setting": "dgt-14 rice plants", "result": "up to 3360 g ae/ha"},
      {"measurement": "Visual % injury (Ave)", "setting": "[3]; T2, 840 g ae/ha", "result": 90.0, "unit": "%"},
      {"measurement": "Visual % injury (Ave)", "setting": "[3]; T3, 840 g ae/ha", "result": 86.3, "unit": "%"},
      {"measurement": "Visual % injury (Ave)", "setting": "[4]; T2 study", "result": 100.0, "unit": "%"},
      {"measurement": "Visual % injury (Ave)", "setting": "[4]; T3 study", "result": 100.0, "unit": "%"},
      {"measurement": "Visual % injury (Ave)", "setting": "[5]; T2, 840 g ae/ha", "result": 1.3, "unit": "%"},
      {"measurement": "Visual % injury (Ave)", "setting": "[5]; T3, 840 g ae/ha", "result": 0.0, "unit": "%"},
      {"measurement": "IC50", "setting": "[6]; at 60 μM PEP", "result": 15.4, "unit": "mM"},
      {"measurement": "IC50", "setting": "[6]; at 1 mM PEP", "result": 19.7, "unit": "mM"},
      {"measurement": "IC50", "setting": "[7]; at 60 μM PEP", "result": 42, "unit": "mM"},
      {"measurement": "IC50", "setting": "[7]; at 1 mM PEP, values greater than 50 are estimates", "result": 50.5, "unit": "mM"},
      {"measurement": "IC50", "setting": "[8]", "result": "> 80", "unit": "mM"},
      {"measurement": "IC50", "setting": "[8]; read-out: IC50 (glyphosate), at 60 μM PEP, values greater than 50 are estimates", "result": "> 80", "unit": "mM"}
    ]}
  ]
}
